Data reported in publication PMC7292537, “BGAL1 depletion boosts the level of β‐galactosylation of N‐ and O‐glycans in N. benthamiana” (Plant Biotechnology Journal, 2020).

Tested on: T1, NbBGAL1 (SPα-BGAL1)
T1 construct: mature residues 25-846 (GH35 + Gal-lectin domain), own signal peptide replaced by barley alpha-amylase signal peptide, C-terminal StrepII tag (WSHPQFEK); transiently expressed in N. benthamiana, apoplastic fluid not purified; 95 kDa full length plus 48 kDa GH35 and 38 kDa truncated forms; precursor 846 aa
Test: fluorescein release, Hanes-Woolf and Lineweaver-Burk
Type: biochemical, Nicotiana benthamiana
Conditions: read-out: apparent KM; apoplastic fluid with overexpressed enzyme; 50 mM MES pH 5.0, 25 °C, 1 h; FDG 0-250 µM (printed unit mM doubtful, perhaps µM); unit of the source corrected; heading: apparent KM

`O=C1OC2(c3ccc(O[C@@H]4O[C@H](CO)[C@H](O)[C@H](O)[C@H]4O)cc3Oc3cc(O[C@@H]4O[C@H](CO)[C@H](O)[C@H](O)[C@H]4O)ccc32)c2ccccc21` [FDG, fluorescein di-β-D-galactopyranoside] was tested, and the Km was 0.0298 mM.
